Source: patent publication US12245993B2, “Vitamin K2 microcapsule, preparation method thereof and use thereof in manufacture of medicament for preventing or treating cardiovascular and cerebrovascular diseases” (Xiamen Kingdomway Biotech. Co., Ltd., priority 2020, dated 2025)

Experiment: Determination of stability of vitamin K2 microcapsules (light, oxygen, high temperature)
Type: physicochemical
Experimental: (2) Test Method The samples and the reference samples were respectively put into sealed colorless and transparent vials, and placed under the conditions of 4500Lx light intensity irradiation, oxygen filling (25° C.), and stored at 60° C. (incubator) for 15 days, respectively; and they were subjected to sampling on Day 0, Day 5, Day 10, Day 15, and VK2 contents thereof were determined by USP method. The effects of light, oxygen, and temperature conditions on the labeled content (%) of VK2 were investigated.

Substance: Vitamin K2 [Reference sample 4]
- Labeled content of VK2 (%) (60° C. (incubator), Day 0): 100.0%
- Labeled content of VK2 (%) (60° C. (incubator), Day 5): 96.2%
- Labeled content of VK2 (%) (60° C. (incubator), Day 10): 94.8%
- Labeled content of VK2 (%) (60° C. (incubator), Day 15): 90.4%
- Labeled content of VK2 (%) (4500 Lx illumination, Day 0): 100.0%
- Labeled content of VK2 (%) (4500 Lx illumination, Day 5): 89.2%
- Labeled content of VK2 (%) (4500 Lx illumination, Day 10): 74.3%
- Labeled content of VK2 (%) (4500 Lx illumination, Day 15): 60.3%
- Labeled content of VK2 (%) (Oxygen filling (25° C.), Day 0): 100.0%
- Labeled content of VK2 (%) (Oxygen filling (25° C.), Day 5): 93.5%
- Labeled content of VK2 (%) (Oxygen filling (25° C.), Day 10): 89.4%
- Labeled content of VK2 (%) (Oxygen filling (25° C.), Day 15): 81.2%
